{"source": "patent US5866775A", "about": "“Glyphosate-tolerant 5-enolpyruvyl-3-phosphoshikimate synthases” (Monsanto Company, priority 1990, dated 1999)", "molecular_target": "T1, pMON8252 encoded petunia EPSPS variant, glycine (101) to alanine and alanine (192) to threonine (Petunia hybrida, UniProt P11043, A264T/G173A)", "T1 construct": "alanine 192 in the mature petunia EPSP synthase; made in house; host or cells: E. coli SR481 (aroA-)", "T1 sequence (P11043 73-516 G173A/A264T)": "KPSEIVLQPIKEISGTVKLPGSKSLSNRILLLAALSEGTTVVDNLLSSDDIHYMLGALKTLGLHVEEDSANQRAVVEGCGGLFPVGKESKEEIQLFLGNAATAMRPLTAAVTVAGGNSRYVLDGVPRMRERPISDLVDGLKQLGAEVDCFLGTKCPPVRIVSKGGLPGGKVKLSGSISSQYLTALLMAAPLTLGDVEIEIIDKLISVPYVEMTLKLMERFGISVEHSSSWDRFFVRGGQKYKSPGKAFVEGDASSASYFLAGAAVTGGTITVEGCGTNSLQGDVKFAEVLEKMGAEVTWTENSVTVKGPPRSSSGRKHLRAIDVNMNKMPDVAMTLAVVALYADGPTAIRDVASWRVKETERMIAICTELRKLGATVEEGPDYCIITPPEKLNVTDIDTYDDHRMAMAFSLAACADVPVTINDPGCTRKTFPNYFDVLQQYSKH", "experiment": "EPSP synthase kinetic constants (appKm PEP, appKi glyphosate)", "format": "biochemical", "settings": "extract of SR481 cells with pMON8252", "description": "The balance of the #742 preculture (~750 μl) was used to inoculate 2 ml of 2XYT medium containing 50 μg/ml carbenicillin and was shaken overnight at 37° C. to reach saturation. Plasmid DNA was isolated from an aliquot of the saturated culture using an alkaline lysis procedure. The plasmid was designated pMON8252. An aliquot of the pMON8252 plasmid was used to transform the E. coli host SR481 (described above) and reselected on MOPS medium containing 10 mM glyphosate and 50 μg/ml carbenicillin. A single glyphosate resistant colony of pMON8252 was picked off the selection plate and used to inoculate 3 ml of 2XY1 bacterial medium containing 50 μg/ml carbenicillin. The culture was then aerated on a rotating wheel at 37° C. until saturated and then used to inoculate a larger 250 ml culture. The large culture was grown to saturation by continuously shaking it overnight at 37° C. in a water bath. The bacterial cells were lysed and the extracts were assayed for EPSPS activity.\nSpecifically, the bacterial cell paste was washed twice with 0.9% saline, suspended in buffer (100 mM Tris-HCl, 5 mM benzamidine HCl) and passed twice through a French Pressure Cell at 1000 psi. The cell extract was separated from the cells by centrifuging at 15,000×gravity for 10 minutes at 5° C. It was desalted using Sephadex G-50 (Pharmacia, Piscataway, N.J.). The desalted extract was assayed for EPSP synthase activity as follows.\nKinetic constants (appKm PEP and appKi glyphosate) were determined for EPSP synthase as described below. Substrate kinetic parameters were determined at pH 7.9 in 50 mM HEPES (N-[2-hydroxyethyl]piperazine-N'-[2-ethanesulfonic acid]) buffer in the presence of 2 mM S3P and varying amounts of ^14 C-PEP (10 μM-400 μM), for 2.0 minutes at 25° C. Reactions were quenched with 100 mM NaAcetate in ethanol, pH 4.5, centrifuged and analyzed for product EPSP formation by HPLC with flow radioactivity detection. HPLC conditions were 0.35M KPi, pH 6.5, on a Synchropak AX100 column at 1.0 ml/minute."}
{"smiles": "C=C(OP(=O)(O)O)C(=O)O", "note": "[PEP, phosphoenolpyruvate]", "values": [{"measurement": "Km for PEP", "result": 54, "unit": "µM"}]}
